± gives the expanded uncertainty stated by the source.
Legend:
[1] = refractive index (Na D-line) (dimensionless); conditions: 293.15 K; 101.33 kPa; Liquid; Standard Abbe refractometry
[2] = 298.15 K; 101.33 kPa; Liquid; Vibrating tube method

Row | refractive index [1] | Compound | mass density [2] [kg/m3]
1 | 1.3286 ± 0.0008 | CO [methanol] | 791.3 ± 0.2
2 | 1.3333 ± 0.0008 | O [water] | 

Row | Compound | refractive index [1] | mass density [2] [kg/m3]
3 | C=CC#N [acrylonitrile] | 1.3908 ± 0.0008 | 800.6 ± 0.2
